In assay [1] the test system is NCI-H358 cells express KRAS G12C. In words: Cell growth inhibition assay (CCK-8). Type of assay: cell-based. The conditions noted are these: Homo sapiens, 144 h; NCI-H358, 6 days incubation. As for the experimental part:
3. Cell Growth inhibition assay
NCI-H358 cells express KRAS G12C were cultured in RPMI 1640 medium (Gibco) containing 10% fetal bovine serum (Gibco). Cells in culture medium were plated in 96-well plates at a concentration of 3000 cells/well ([…]) and allowed to attach overnight. The next day, compounds were diluted in culture medium and added to the plates. After 6 days incubation in a 37° C./5% CO2 cell incubator, the medium was removed, then 100 μL of 1×CCK-8 (MCE) in culture medium was added in each well. The plates were incubated 1.5-2 hours in a 37° C./5% CO2 cell incubator. OD450 signals were read on Tecan Spark multimode microplate reader and analyzed using a 4-parameter logistic model to calculate IC50 values.

In assay [2] the test system is Phospho-ERK1/2(THR202/TYR204) in NCI-H358 cells express KRAS G12C. Description: Phospho-ERK1/2(THR202/TYR204) HTRF assay. Type of assay: cell-based. The conditions noted are these: Homo sapiens; NCI-H358, 2 hours incubation; read-out: p-ERK inhibition in NCI-H358 IC50. As for the experimental part:
NCI-H358 cells express KRAS G12C were cultured in RPMI 1640 medium (Gibco) containing 10% fetal bovine serum (Gibco). Cells in culture medium were plated in 96-well plates at a concentration of 40,000 cells/well and allowed to attach overnight. The next day, culture medium was removed and added compounds diluted in assay medium (RPMI 1640, 0.1% EFBS). After 2 hours incubation in a 37° C./5% CO2 cell incubator, the assay medium was removed, then 50 μL of 1× supplemented lysis buffer (Cisbio) was added and the plates were incubated at 25° C. for 45 min with shaking. 10 μL of cell lysates from the 96-well plates were transferred to a 384-well plate (Greiner) containing 2.5 µL/well HTRF® pre-mixed antibodies (Cisbio 64AERPEH).
Incubate 4 hours at 25° C. and then read HTRF signals on Tecan Spark multimode microplate reader. The data were analyzed using a 4-parameter logistic model to calculate IC50 values.

For the next assay, the target named is T1, KRAS G12C (Homo sapiens, UniProt P01116, G12C).
T1 construct: HIS-KRAS (G12C, aa 2-185, Sino biological); purchased Sino biological
Description: SOS1 catalyzed nucleotide exchange assay (TR-FRET). The conditions noted are these: GDP-loaded HIS-KRAS(G12C), 1 hour pre-incubation with compound. Type of assay: biochemical. As for the experimental part:
1. SOS1 Catalyzed Nucleotide Exchange Assay
HIS-KRAS (G12C, aa 2-185, Sino biological) was diluted to […] EDTA buffer (20 mM HEPES, pH 7.4, 50 mM NaCl, 10 mM EDA, 0.01% (v/v) Tween-20) and incubated for 30 min at 25° C. The EDTA pretreated HIS-KRAS(G12C) was diluted to 12 nM in assay buffer (25 mM HEPES, pH 7.4, 120 mM NaCl, 5 mM MgCl2, 1 mM DTI, 0.01% (v/v) Tween 20, 0.1% (w/v) BSA) containing 120 nM GDP(Sigma) and Mab Anti 6HIS-Tb cryptate Gold(Cisbio) and incubated for 1 hour at 25° C. to prepare GDP-loaded HIS-KRAS(G12C). The GDP-loaded HIS-KRAS(G12C) was pre-incubation with diluted compounds in a 384-well plate (Greiner) for 1 hour, then purified SOS 1ExD (Flag tag, aa 564-1049) and BODIPY™FL GTP (Invitrogen) were added to the assay wells (Final concentration: 3 nM HIS-KRAS(G12C), 2 μM SOS1 ExD, 80 nM BODIPY™FL GTP, 21 ng/mL MAb Anti 6HS-Tb cryptate Gold) and incubated for 4 hours at 25° C. TR-FRET signals were then read on Tecan Spark multimode microplate reader. The parameters were F486: Excitation 340 (35) nm, Emission 486 (10) nm, Lag time 100 μs, Integration time […]; F515: Excitation 340 (35) nm, Emission 515 (10) nm, Lag time […], Integration time 200 s. TR-FRET ratios for each individual wells were calculated by equation: TR-FRET ratio=(Signal F515/Signal F486)*10000. Then the data were analyzed using a 4-parameter logistic model to calculate IC50 values.

Among the data in patent publication US20210040089A1, “KRAS MUTANT PROTEIN INHIBITORS” (Jacobio Pharmaceuticals Co., Ltd., priority 2019, published 2021) are IC50 values, retold here.

Molecules are shown by their SMILES. pIC50: −log10 of the molar value. Some results are limits rather than exact numbers.

T1 sequence (P01116 2-185 isoform P01116-2 G12C): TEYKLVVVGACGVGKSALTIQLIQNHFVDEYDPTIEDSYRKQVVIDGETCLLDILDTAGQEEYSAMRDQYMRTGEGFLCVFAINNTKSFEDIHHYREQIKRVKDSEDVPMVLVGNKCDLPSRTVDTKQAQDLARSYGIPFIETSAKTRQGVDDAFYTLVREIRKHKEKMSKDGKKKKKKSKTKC

Turning to `C=CC(=O)N1CCN(c2nc(OC[C@@H]3CC[C@H](N(C)C)C3)nc3c2CCN(c2cccc4cccc(C)c24)C3)CC1CC#N` (stereo partly drawn) [Compound 22, 2-(1-acryloyl-4-(2-(((1R,3S)-3-(dimethylamino)cyclopentyl)methoxy)-7-(8-methylnaphthalen-1-yl)-5,6,7,8-tetrahydropyrido[3,4-d]pyrimidin-4-yl)piperazin-2-yl)acetonitrile], the pIC50 is 7.19 in assay [1], 7.01 in assay [2] and 7.97 on KRAS G12C.
On to `Cc1cccc2cccc(N3CCc4c(nc(OCC5(CN6CCCC6)CC5)nc4N4CCN(C(=O)/C=C/CN(C)C)C(CC#N)C4)C3)c12` (stereo not drawn) [Compound 86, (E)-2-(1-(4-(dimethylamino)but-2-enoyl)-4-(7-(8-methylnaphthalen-1-yl)-2-((1-(pyrrolidin-1-ylmethyl)cyclopropyl)methoxy)-5,6,7,8-tetrahydropyrido[3,4-d]pyrimidin-4-yl)piperazin-2-yl)acetonitrile], for which the pIC50 is 6.99 in assay [1], 6.88 in assay [2] and less than 6.30 on KRAS G12C.
On to `C=CC(=O)N1CCN(c2nc(OCC3CCCC(N(C)C)C3)nc3c2CCN(c2ccccc2C(F)(F)F)C3)CC1CC#N` (stereo not drawn) [Compound 6, 2-(1-acryloyl-4-(2-((3-(dimethylamino)cyclohexyl)methoxy)-7-(2-(trifluoromethyl)phenyl)-5,6,7,8-tetrahydropyrido[3,4-d]pyrimidin-4-yl)piperazin-2-yl)acetonitrile], for which the pIC50 in assay [1] is 6.24; in assay [2], 6.23; on KRAS G12C, 6.75.
The corresponding values for `C=C(F)C(=O)N1CCN(c2nc(OCC3(CN(CC)CC)CC3)nc3c2CCN(c2cccc4cccc(C)c24)C3)CC1CC#N` (stereo not drawn) [Compound 76, 2-(4-(2-((1-((diethylamino)methyl)cyclopropyl)methoxy)-7-(8-methylnaphthalen-1-yl)-5,6,7,8-tetrahydropyrido[3,4-d]pyrimidin-4-yl)-1-(2-fluoroacryloyl)piperazin-2-yl)acetonitrile] are 6.38, 6.45 and 7.93.
Regarding `C=CC(=O)N1CCN(c2nc(OCC3(CN4CC(N(C)C)C4)CC3)nc3c2CCN(c2cccc4cccc(C)c24)C3)CC1CC#N` (stereo not drawn) [Compound 59, 2-(1-acryloyl-4-(2-((1-((3-(dimethylamino)azetidin-1-yl)methyl)cyclopropyl)methoxy)-7-(8-methylnaphthalen-1-yl)-5,6,7,8-tetrahydropyrido[3,4-d]pyrimidin-4-yl)piperazin-2-yl)acetonitrile], the values for the pIC50 (in assay [1]; in assay [2]; at KRAS G12C) were 7.21, 7.24 and 8.96, respectively.
Taken in the same sequence, the figures for `C=CC(=O)N1CCN(c2nc(OCC3(CN(C)C)CC3)nc3c2CCN(c2cccc4cccc(Cl)c24)C3)CC1CC#N` (stereo not drawn) [Compound 46, 2-(1-acryloyl-4-(7-(8-chloronaphthalen-1-yl)-2-((1-((dimethylamino)methyl)cyclopropyl)methoxy)-5,6,7,8-tetrahydropyrido[3,4-d]pyrimidin-4-yl)piperazin-2-yl)acetonitrile] were 7.57, 7.83 and 8.59.
As to `C=CC(=O)N1CCN(c2nc(OCC3(CN4CC[C@@H](F)C4)CC3)nc3c2CCN(c2cccc4cccc(C)c24)C3)CC1CC#N` (stereo partly drawn) [Compound 49, 2-(1-acryloyl-4-(2-((1-(((R)-3-fluoropyrrolidin-1-yl)methyl)cyclopropyl)methoxy)-7-(8-methylnaphthalen-1-yl)-5,6,7,8-tetrahydropyrido[3,4-d]pyrimidin-4-yl)piperazin-2-yl)acetonitrile], the pIC50 is 7.19 in assay [1], 7.42 in assay [2] and 8.51 on KRAS G12C.
The corresponding values for `C=C(F)C(=O)N1CCN(c2nc(OCC3(CN(C)C)CC3)nc3c2CCN(c2cccc4cccc(Cl)c24)C3)CC1CC#N` (stereo not drawn) [Compound 79, 2-(4-(7-(8-chloronaphthalen-1-yl)-2-((1-((dimethylamino)methyl)cyclopropyl)methoxy)-5,6,7,8-tetrahydropyrido[3,4-d]pyrimidin-4-yl)-1-(2-fluoroacryloyl)piperazin-2-yl)acetonitrile] are 6.62, 6.36 and 8.22.
Taken in the same sequence, the figures for `C=CC(=O)N1CCN(c2nc(OCC3(N(C)C)CC3)nc3c2CCN(c2cccc4ccccc24)C3)CC1CC#N` (stereo not drawn) [Compound 12, 2-(1-acryloyl-4-(2-((1-(dimethylamino)cyclopropyl)methoxy)-7-(naphthalen-1-yl)-5,6,7,8-tetrahydropyrido[3,4-d]pyrimidin-4-yl)piperazin-2-yl)acetonitrile] were 6.19, 6.29 and 6.75.
The corresponding values for `C=CC(=O)N1CCN(c2nc(OC(C)C3(CN(C)C)CC3)nc3c2CCN(c2cccc4cccc(C)c24)C3)CC1CC#N` (stereo not drawn) [Compound 57, 2-(1-acryloyl-4-(2-(1-(1-((dimethylamino)methyl)cyclopropyl)ethoxy)-7-(8-methylnaphthalen-1-yl)-5,6,7,8-tetrahydropyrido[3,4-d]pyrimidin-4-yl)piperazin-2-yl)acetonitrile] are 6.28, 6.53 and 7.55.
On to `C=CC(=O)N1CCN(c2nc(OCC3CCC(N4CCCC4)C3)nc3c2CCN(c2cccc4ccccc24)C3)CC1CC#N` (stereo not drawn) [Compound 33, 2-(1-acryloyl-4-(7-(26aphthalene-1-yl)-2-((3-(pyrrolidin-1-yl)cyclopentyl)methoxy)-5,6,7,8-tetrahydropyrido[3,4-d]pyrimidin-4-yl)piperazin-2-yl)acetonitrile], for which the pIC50 was 6.19 in assay [1] and 6.52 in assay [2].
Consider `C=CC(=O)N1CCN(c2nc(OCC3(C(=O)N4CCN(C)CC4)CC3)nc3c2CCN(c2cccc4cccc(C)c24)C3)CC1CC#N` (stereo not drawn) [Compound 63, 2-(1-acryloyl-4-(7-(8-methylnaphthalen-1-yl)-2-((1-(4-methylpiperazine-1-carbonyl)cyclopropyl)methoxy)-5,6,7,8-tetrahydropyrido[3,4-d]pyrimidin-4-yl)piperazin-2-yl)acetonitrile], for which the pIC50 is 6.07 in assay [1], 6.27 in assay [2] and 7.51 at KRAS G12C.
Take `C=CC(=O)N1CCN(c2nc(OCC3(CN4CCOCC4)CC3)nc3c2CCN(c2cccc(Cl)c2C(F)(F)F)C3)CC1CC#N` (stereo not drawn) [Compound 40, 2-(1-acryloyl-4-(7-(3-chloro-2-(trifluoromethyl)phenyl)-2-((1-(morpholinomethyl)cyclopropyl)methoxy)-5,6,7,8-tetrahydropyrido[3,4-d]pyrimidin-4-yl)piperazin-2-yl)acetonitrile]: the figures for the negative-log IC50 (pIC50) (in assay [1]; on KRAS G12C) were 6.44 and 7.62, respectively.
Taken in the same sequence, the figures for `C=CC(=O)N1CCN(c2nc(OCC3CCCC3N(C)C)nc3c2CCN(c2cccc(C)c2C)C3)CC1CC#N` (stereo not drawn) [Compound 28, 2-(1-acryloyl-4-(2-((2-(dimethylamino)cyclopentyl)methoxy)-7-(2,3-dimethylphenyl)-5,6,7,8-tetrahydropyrido[3,4-d]pyrimidin-4-yl)piperazin-2-yl)acetonitrile] were 6.86 and 7.62.
